Experiment [1] addresses T1, urease (Canavalia ensiformis, UniProt P07374). The experiment can be described thus: biochemical. The class given is biochemical. The procedure:
The inhibitory potential of the compounds was assessed using a slightly modified indophenol method ([Hina et al., 2023]). In 96-well plates, a mixture consisting of 50 µL urease, 30 µL buffer solution (phosphate buffer, sodium salicylate, sodium nitroprusside, and EDTA, pH 8.0), 10 µL urea substrate (100 mM), and 10 µL of the test compound (1 mM) was subjected to pre-incubation for 10 min at room temperature. Subsequently, an alkali reagent (70 µL) was promptly introduced into each well. Then, 30 min later, the absorbance at 630 nm for all samples was measured using a BioTek ELx800 instrument from BioTek Instruments, Inc., United States. The data were collected for all experiments performed in triplicate, and the percentage of inhibitory activities was assessed utilizing the following formula: Percentage of inhibition=100 – Absorbance of compound/Absorbance of control × 100.

Experiment [2] deals with T1, urease. The experiment can be described thus: Kinetic study (Lineweaver–Burk / Michaelis–Menten) of urease inhibition. The following applies: Lineweaver–Burk plots; 5j at 0, 2.55, 5.11, 7.65 μM. The class given is biochemical. The source says:
By using Lineweaver–Burk graphs, we determined the mechanism of action of the leading compound 5j against urease. We evaluated the effect of the inhibitor on K m and V max using reciprocal 1/S and 1/V of the product concentration and calculated the inhibition type. The slope K m /V max of each line was schemed against different concentrations of the substrate and inhibitor. In kinetic studies of the potent compound, different concentrations of the compound and substrate were used. Different concentrations of 1 mM 5j were 0, 2.55, 5.11, and 7.65 μM, and different concentrations of the substrate were 0, 25, 50, 100, and 150 mM.
The type of inhibitory action was determined by using […] different concentrations of the substrate (0, 2.5, 5, 10, and 15 mM) in the absence and presence of different concentrations of inhibitor 5j (0, 2.55, 5.11, and 7.65 μM).

Experiment [3] addresses T1, urease. The following applies: read-out: IC50 (urease); Figure 1; ref Khan et al., 2024; cited from earlier work.

Here are results for two compounds from article PMC11333205, “Pyridylpiperazine-based carbodithioates as urease inhibitors: synthesis and biological evaluation” (Frontiers in Chemistry, 2024).

Like-named read-outs stand apart in the source and are kept apart here.

T1 sequence (P07374 whole entry, looked up): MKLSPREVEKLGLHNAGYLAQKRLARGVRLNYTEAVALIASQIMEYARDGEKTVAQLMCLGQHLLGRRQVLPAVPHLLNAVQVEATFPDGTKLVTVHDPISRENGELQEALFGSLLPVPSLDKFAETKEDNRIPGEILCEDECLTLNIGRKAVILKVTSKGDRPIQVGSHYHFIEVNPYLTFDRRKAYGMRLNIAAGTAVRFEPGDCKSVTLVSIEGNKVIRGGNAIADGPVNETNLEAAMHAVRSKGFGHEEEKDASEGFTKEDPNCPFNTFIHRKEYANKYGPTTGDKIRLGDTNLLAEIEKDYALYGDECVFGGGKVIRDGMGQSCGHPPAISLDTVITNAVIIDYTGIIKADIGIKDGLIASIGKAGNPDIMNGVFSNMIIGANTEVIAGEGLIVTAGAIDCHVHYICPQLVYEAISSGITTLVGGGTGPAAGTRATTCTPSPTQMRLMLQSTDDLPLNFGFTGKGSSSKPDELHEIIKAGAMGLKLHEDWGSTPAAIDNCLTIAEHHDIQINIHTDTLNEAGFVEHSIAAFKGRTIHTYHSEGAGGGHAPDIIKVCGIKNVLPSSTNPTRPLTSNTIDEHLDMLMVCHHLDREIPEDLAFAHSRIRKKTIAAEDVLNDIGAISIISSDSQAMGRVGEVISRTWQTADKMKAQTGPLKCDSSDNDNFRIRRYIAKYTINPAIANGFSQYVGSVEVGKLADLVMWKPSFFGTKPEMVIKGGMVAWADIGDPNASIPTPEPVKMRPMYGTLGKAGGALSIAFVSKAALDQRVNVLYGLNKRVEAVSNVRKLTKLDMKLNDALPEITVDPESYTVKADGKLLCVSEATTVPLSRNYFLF

`Cc1ccccc1NC(=O)CSC(=S)N1CCN(c2ncccc2[N+](=O)[O-])CC1` [Compound 5j, 2-Oxo-2-(o-tolylamino)ethyl 4-(3-nitropyridin-2-yl)piperazine-1-carbodithioate]: at urease [1], the half-maximal inhibitory concentration (IC50) – broadly, the concentration that gives 50% inhibition – came to 5160 ± 2680 nM. In addition, on urease [2], the “type of inhibition against urease” value is “mixed type of inhibition”. With `CN(Cc1ccccc1)C(=S)SCc1ccccc1` [S-benzyl substituted carbodithioate], the IC50 on urease [3] is 750 ± 40 nM.
